Measured values as given in ChEMBL document CHEMBL1201861, “Genomics of Drug Sensitity in Cancer screening data, Wellcome Trust Sanger Institute”.
pIC50: −log10 of the molar value.

What was measured:
OVCAR-8 = assay: cells; assay type: functional, cell-based; conditions: Homo sapiens;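 also: growth inhibition of human OVCAR-8 cells, read out by a cell viability assay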
Description: SANGER: Inhibition of human OVCAR-8 cell growth in a cell viability assay.

NCI-H358 = assay: cells; assay type: functional, cell-based; conditions: Homo sapiens;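 also: growth inhibition of NCI-H358 human cells, read out with a cell viability assay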
Description: SANGER: Inhibition of human NCI-H358 cell growth in a cell viability assay.

U-251 = assay: cells; assay type: functional, cell-based; conditions: Homo sapiens;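 also: growth inhibition of human U-251 cells, read out through a cell viability assay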
Description: SANGER: Inhibition of human U251 cell growth in a cell viability assay.

G-361 = assay: cells; assay type: functional, cell-based; conditions: Homo sapiens
DoTc2-4510 = assay: cells; assay type: functional, cell-based; conditions: Homo sapiens
D-392MG = assay: cells; assay type: functional, cell-based; conditions: Homo sapiens
OPM-2 = assay: cells; assay type: functional, cell-based, Homo sapiens; conditions: Homo sapiens, OPM-2;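 also: growth of OPM-2 cells measured with a viability assay, IC50 for suppression of proliferation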
Description: SANGER: Inhibition of human OPM-2 cell growth in a cell viability assay.

SK-CO-1 = assay: cells; assay type: functional, cell-based; conditions: Homo sapiens;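 also: growth inhibition of SK-CO-1 cells, determined by a viability readout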
Description: SANGER: Inhibition of human SK-CO-1 cell growth in a cell viability assay.

BPH-1 = assay: cells; assay type: functional, cell-based; conditions: Homo sapiens;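 also: cell viability assay measuring growth inhibition of human BPH-1 cells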
Description: SANGER: Inhibition of human BPH-1 cell growth in a cell viability assay.

NCI-H748 = assay: cells; assay type: functional, cell-based, Homo sapiens; conditions: Homo sapiens, NCI-H748;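 also: growth inhibition of NCI-H748 cells, measured by a cell viability assay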
Description: SANGER: Inhibition of human NCI-H748 cell growth in a cell viability assay.

NCI-H2405 = assay: cells; assay type: functional, cell-based; conditions: Homo sapiens;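 also: growth inhibition of the human cell line, read out with a cell viability assay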
Description: SANGER: Inhibition of human NCI-H2405 cell growth in a cell viability assay.

TT = assay: cells; assay type: functional, cell-based; conditions: Homo sapiens
Description: SANGER: Inhibition of human TT cell growth in a cell viability assay.

RPMI 8402 = assay: SANGER: Inhibition of human RPMI-8402 cell growth in a cell viability assay.; assay type: functional, cell-based; conditions: Homo sapiens, RPMI 8402
COLO-679 = assay: cells; assay type: functional, cell-based; conditions: Homo sapiens
Description: SANGER: Inhibition of human COLO-679 cell growth in a cell viability assay.

NCI-H727 = assay: cells; assay type: functional, cell-based; conditions: Homo sapiens;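 also: growth inhibition of human NCI-H727 cells, read out with a cell viability assay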
Description: SANGER: Inhibition of human NCI-H727 cell growth in a cell viability assay.

RPMI-7951 = assay: cells; assay type: functional, cell-based; conditions: Homo sapiens
Description: SANGER: Inhibition of human RPMI-7951 cell growth in a cell viability assay.

RVH-421 = assay: cells; assay type: functional, cell-based; conditions: Homo sapiens
Description: SANGER: Inhibition of human RVH-421 cell growth in a cell viability assay.

NCI-H1618 = assay: cells; assay type: functional, cell-based; conditions: Homo sapiens;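 also: growth inhibition of human NCI-H1618 cells, measured by a cell viability assay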
Description: SANGER: Inhibition of human NCI-H1618 cell growth in a cell viability assay.

NCI-H596 = assay: cells; assay type: functional, cell-based; conditions: Homo sapiens;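 also: growth inhibition of NCI-H596 cells, read out with a cell viability assay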
Description: SANGER: Inhibition of human NCI-H596 cell growth in a cell viability assay.

PLC-PRF-5 = assay: cells; assay type: functional, cell-based; conditions: Homo sapiens;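 also: growth inhibition of human PLC-PRF-5 cells, read out with a viability assay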
Description: SANGER: Inhibition of human PLC-PRF-5 cell growth in a cell viability assay.

DMS-153 = assay: cells; assay type: functional, cell-based, Homo sapiens; conditions: Homo sapiens, DMS-153
Description: SANGER: Inhibition of human DMS-153 cell growth in a cell viability assay.

MFE-296 = assay: SANGER: Inhibition of human MFE-296 cell growth in a cell viability assay.; assay type: functional, cell-based
CCF-STTG1 = assay: cells; assay type: functional, cell-based; conditions: Homo sapiens;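 also: growth inhibition of human CCF-STTG1 cells, determined with a cell viability read-out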
Description: SANGER: Inhibition of human CCF-STTG1 cell growth in a cell viability assay.

HT-1080 = assay: cells; assay type: functional, cell-based; conditions: Homo sapiens
Description: SANGER: Inhibition of human HT-1080 cell growth in a cell viability assay.

DV-90 = assay: cells; assay type: functional, cell-based; conditions: Homo sapiens;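 also: Read-out is a viability assay, with IC50 reflecting the drop in DV-90 cell growth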
Description: SANGER: Inhibition of human DV-90 cell growth in a cell viability assay.

MHH-ES-1 = assay: cells; assay type: functional, cell-based; conditions: Homo sapiens
Description: SANGER: Inhibition of human MHH-ES-1 cell growth in a cell viability assay.

KP-N-YN = assay: cells; assay type: functional, cell-based; conditions: Homo sapiens;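 also: growth inhibition of KP-N-YN cells, read out with a cell viability assay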
Description: SANGER: Inhibition of human KP-N-YN cell growth in a cell viability assay.

SNU-449 = assay: cells; assay type: functional, cell-based; conditions: Homo sapiens
Description: SANGER: Inhibition of human SNU-449 cell growth in a cell viability assay.

SCC-25 = assay: cells; assay type: functional, cell-based; conditions: Homo sapiens;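 also: growth inhibition of SCC-25 cells, measured with a cell viability assay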
Description: SANGER: Inhibition of human SCC-25 cell growth in a cell viability assay.

8505C = assay: cells; assay type: functional, cell-based; conditions: Homo sapiens
Description: SANGER: Inhibition of human 8505C cell growth in a cell viability assay.

HuO-3N1 = assay: cells; assay type: functional, cell-based; conditions: Homo sapiens;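 also: cell viability readout used to measure how strongly compounds suppress proliferation of human HuO-3N1 cells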
Description: SANGER: Inhibition of human HuO-3N1 cell growth in a cell viability assay.

IM-9 = assay: SANGER: Inhibition of human IM-9 cell growth in a cell viability assay.; assay type: functional, cell-based; conditions: Homo sapiens, IM-9
DMS-53 = assay: cells; assay type: functional, cell-based; conditions: Homo sapiens;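 also: cell viability assay measuring growth inhibition of human DMS-53 cells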
Description: SANGER: Inhibition of human DMS-53 cell growth in a cell viability assay.

GDM-1 = assay: cells; assay type: functional, cell-based, Homo sapiens; conditions: Homo sapiens, GDM-1; read-out: IC50;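 also: cell viability readout used to measure growth inhibition of human GDM-1 cells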
Description: SANGER: Inhibition of human GDM-1 cell growth in a cell viability assay.

BHT-101 = assay: cells; assay type: functional, cell-based; conditions: Homo sapiens
Description: SANGER: Inhibition of human BHT-101 cell growth in a cell viability assay.

IGR-1 = assay: cells; assay type: functional, cell-based; conditions: Homo sapiens;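 also: growth inhibition of human IGR-1 cells, read out with a cell viability assay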
Description: SANGER: Inhibition of human IGR-1 cell growth in a cell viability assay.

C-4-II = assay: SANGER: Inhibition of human C-4-II cell growth in a cell viability assay.; assay type: functional, cell-based
COLO-792 = assay: cells; assay type: functional, cell-based; conditions: Homo sapiens
Description: SANGER: Inhibition of human COLO-792 cell growth in a cell viability assay.

EGI-1 = assay: cells; assay type: functional, cell-based; conditions: Homo sapiens;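 also: cell viability readout used to gauge growth inhibition of EGI-1 cells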
Description: SANGER: Inhibition of human EGI-1 cell growth in a cell viability assay.

SU-DHL-1 = assay: SANGER: Inhibition of human SU-DHL-1 cell growth in a cell viability assay.; assay type: functional, cell-based; conditions: Homo sapiens, SU-DHL-1
HCC1419 = assay: cells; assay type: functional, cell-based; conditions: Homo sapiens;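 also: growth inhibition of human HCC1419 cells, read out as cell viability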
Description: SANGER: Inhibition of human HCC1419 cell growth in a cell viability assay.

MHH-CALL-2 = assay: cells; assay type: functional, cell-based, Homo sapiens; conditions: Homo sapiens, MHH-CALL-2;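 also: growth inhibition of the cell line, read out in a cell viability assay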
Description: SANGER: Inhibition of human MHH-CALL-2 cell growth in a cell viability assay.

IPC-298 = assay: SANGER: Inhibition of human IPC-298 cell growth in a cell viability assay.; assay type: functional, cell-based
A673 = assay: cells; assay type: functional, cell-based; conditions: Homo sapiens;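 also: growth inhibition of human A673 cells, read out through a cell viability assay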
Description: SANGER: Inhibition of human A673 cell growth in a cell viability assay.

UACC-812 = assay: cells; assay type: functional, cell-based; conditions: Homo sapiens
Description: SANGER: Inhibition of human UACC-812 cell growth in a cell viability assay.

SNG-M = assay: cells; assay type: functional, cell-based; conditions: Homo sapiens
Description: SANGER: Inhibition of human SNG-M cell growth in a cell viability assay.

**Q.** What does the source list for `CCCCCCCCCCCC1=C(O)C(=O)C=C(O)C1=O` [EMBELIN]?
**A.** pIC50 (OVCAR-8): 4.95; pIC50 (NCI-H358): 4.95; pIC50 (U-251): 5.01; pIC50 (G-361): 5.23; pIC50 (DoTc2-4510): 4.85; pIC50 (D-392MG): 4.78; pIC50 (OPM-2): < 4.49; pIC50 (SK-CO-1): 4.87; pIC50 (BPH-1): < 4.49; pIC50 (NCI-H748): < 4.49; pIC50 (NCI-H2405): 5.10; pIC50 (TT): 4.63; pIC50 (RPMI 8402): 5.39; pIC50 (COLO-679): 5.38; pIC50 (NCI-H727): 5.10; pIC50 (RPMI-7951): 4.59; pIC50 (RVH-421): 4.94; pIC50 (NCI-H1618): < 4.49; pIC50 (NCI-H596): 4.81; pIC50 (PLC-PRF-5): 5.16; pIC50 (DMS-153): < 4.49; pIC50 (MFE-296): 4.84; pIC50 (CCF-STTG1): 4.86; pIC50 (HT-1080): 5.32; pIC50 (DV-90): 4.52; pIC50 (MHH-ES-1): 4.80; pIC50 (KP-N-YN): < 4.49; pIC50 (SNU-449): 4.78; pIC50 (SCC-25): < 4.49; pIC50 (8505C): 4.85; pIC50 (HuO-3N1): < 4.49; pIC50 (IM-9): < 4.49; pIC50 (DMS-53): 4.81; pIC50 (GDM-1): 4.55; pIC50 (BHT-101): 4.70; pIC50 (IGR-1): 5.27; pIC50 (C-4-II): < 4.49; pIC50 (COLO-792): < 4.49; pIC50 (EGI-1): 4.64; pIC50 (SU-DHL-1): < 4.49; pIC50 (HCC1419): < 4.49; pIC50 (MHH-CALL-2): < 4.49; pIC50 (IPC-298): 4.87; pIC50 (A673): 4.90; pIC50 (UACC-812): < 4.49; pIC50 (SNG-M): 5.15

**Q.** `C/C(=C\c1csc(C)n1)[C@@H]1C[C@@H]2O[C@]2(C)CCC[C@H](C)[C@H](O)[C@@H](C)C(=O)C(C)(C)[C@@H](O)CC(=O)O1` [PATUPILONE] was tested. Which pIC50 (OVCAR-8) did it give?
**A.** Its pIC50 is 8.97.

**Q.** And the pIC50 (NCI-H358)?
**A.** The pIC50 was 8.60.

**Q.** And the pIC50 (U-251)?
**A.** The pIC50 was 7.97.

**Q.** And the pIC50 (G-361)?
**A.** Its pIC50 is 9.15.

**Q.** What about the pIC50 (DoTc2-4510) of the same compound?
**A.** The pIC50 was 9.07.

**Q.** And the pIC50 (D-392MG)?
**A.** The pIC50 was under 7.49.

**Q.** And the pIC50 (OPM-2)?
**A.** Its pIC50 is under 7.49.

**Q.** What about the pIC50 (SK-CO-1) of the same compound?
**A.** The pIC50 was 8.04.

**Q.** And the pIC50 (BPH-1)?
**A.** The pIC50 was 9.28.

**Q.** What about the pIC50 (NCI-H748) of the same compound?
**A.** Its pIC50 is under 7.49.

**Q.** And the pIC50 (NCI-H2405)?
**A.** The pIC50 was 7.90.

**Q.** What about the pIC50 (TT) of the same compound?
**A.** The pIC50 was under 7.49.

**Q.** What about the pIC50 (RPMI 8402) of the same compound?
**A.** The pIC50 was 8.35.

**Q.** What about the pIC50 (COLO-679) of the same compound?
**A.** Its pIC50 is 9.40.

**Q.** What about the pIC50 (NCI-H727) of the same compound?
**A.** Its pIC50 is 8.75.

**Q.** And the pIC50 (RPMI-7951)?
**A.** The pIC50 was 8.98.

**Q.** And the pIC50 (RVH-421)?
**A.** The pIC50 was 7.84.

**Q.** What about the pIC50 (NCI-H1618) of the same compound?
**A.** Its pIC50 is 8.12.

**Q.** And the pIC50 (NCI-H596)?
**A.** Its pIC50 is 7.93.

**Q.** What about the pIC50 (PLC-PRF-5) of the same compound?
**A.** The pIC50 was under 7.49.

**Q.** What about the pIC50 (DMS-153) of the same compound?
**A.** Its pIC50 is 7.53.

**Q.** And the pIC50 (MFE-296)?
**A.** Its pIC50 is 8.57.

**Q.** And the pIC50 (CCF-STTG1)?
**A.** Its pIC50 is 8.23.

**Q.** And the pIC50 (HT-1080)?
**A.** The pIC50 was 9.07.

**Q.** What about the pIC50 (DV-90) of the same compound?
**A.** Its pIC50 is 7.83.

**Q.** And the pIC50 (MHH-ES-1)?
**A.** The pIC50 was 9.05.

**Q.** And the pIC50 (KP-N-YN)?
**A.** Its pIC50 is under 7.49.

**Q.** And the pIC50 (SNU-449)?
**A.** The pIC50 was 8.72.

**Q.** And the pIC50 (SCC-25)?
**A.** Its pIC50 is 8.91.

**Q.** And the pIC50 (8505C)?
**A.** Its pIC50 is 9.35.

**Q.** And the pIC50 (HuO-3N1)?
**A.** Its pIC50 is under 7.49.

**Q.** What about the pIC50 (IM-9) of the same compound?
**A.** The pIC50 was under 7.49.

**Q.** And the pIC50 (DMS-53)?
**A.** Its pIC50 is under 7.49.

**Q.** What about the pIC50 (GDM-1) of the same compound?
**A.** The pIC50 was 8.37.

**Q.** And the pIC50 (BHT-101)?
**A.** The pIC50 was 8.82.

**Q.** And the pIC50 (IGR-1)?
**A.** Its pIC50 is 9.06.

**Q.** What about the pIC50 (C-4-II) of the same compound?
**A.** Its pIC50 is 8.27.

**Q.** What about the pIC50 (COLO-792) of the same compound?
**A.** Its pIC50 is under 7.49.

**Q.** And the pIC50 (EGI-1)?
**A.** The pIC50 was under 7.49.

**Q.** And the pIC50 (SU-DHL-1)?
**A.** The pIC50 was under 7.49.

**Q.** And the pIC50 (HCC1419)?
**A.** Its pIC50 is under 7.49.

**Q.** And the pIC50 (MHH-CALL-2)?
**A.** The pIC50 was under 7.49.

**Q.** What about the pIC50 (IPC-298) of the same compound?
**A.** Its pIC50 is 7.66.

**Q.** What about the pIC50 (A673) of the same compound?
**A.** The pIC50 was 8.61.

**Q.** What about the pIC50 (UACC-812) of the same compound?
**A.** Its pIC50 is under 7.49.

**Q.** What about the pIC50 (SNG-M) of the same compound?
**A.** The pIC50 was 9.24.
